From patent publication US20250213700A1, “COMPOUNDS, COMPOSITIONS, AND METHODS FOR CELL-SPECIFIC PHARMACOLOGY” (Duke University, priority 2022, published 2025)

Key:
[1] = system: GABAAR; test: VTA slice, evoked GABAAR IPSCs on midbrain dopamine neurons; assay type: cell-based, mouse; conditions: 300 nM (FIG. 4E)
Text: FIG. 4A-4F show the DART.2 platform can enable safe use of epileptogenic pharmaceuticals in awake behaving animals. (FIG. 4A) Validation of gabazine.1^DART.2 in cerebellar slice. Top: voltage-clamp schematic. Bottom: tonic GABAAR in granule cells expressing ^+HTP or ^ddHTP. […] Data are mean±SEM, cells normalized to baseline. (FIG. 4B) In vivo delivery of gabazine.1^DART.2 to cerebellar granule cells. Top right: schematic of experimental approach, GCaMP6f granule-cell activity obtained in the absence of sensory stimuli. Top left: example field of view, GCaMP6f signal averaged across trials. Bottom: example calcium traces (ΔF/F) in an awake ^+HTP mouse before (baseline) and after (1 μL of 1 μM gabazine.1^DART.2) infusion. (FIG. 4C) In vivo, 1 μL of 1 μM gabazine.1^DART.2 to ^+HTP mice. Color indicates ΔF/F, each row is one cell before (left) and after (right) gabazine.1^DART.2 infusion. Full dataset from 6 mice (n=1707 cells, p<0.0001, paired t-test, before vs after infusion). (FIG. 4D) In vivo, 1 μL of 1 μM gabazine.1^DART.2 to ^ddHTP mice. Format as in panel C. Full dataset from 4 mice (n=1084 cells, p=0.76, paired t-test, before vs after infusion). (FIG. 4E) Validation of gabazine.7^DART.2 in VTA slice. Top: evoked-IPSC configuration. […] Data are mean±SEM, cells normalized to baseline. Control experiments confirmed the GABAAR specificity of the manipulation. […] Data are mean±SEM, normalized to baseline speed of each animal.
Electrophysiology. Preparation of Brain slices: Mice (8-10 weeks) were injected AAV10 HaloTag™-dTomato to striatum or ventral tegmental area (VTA). After 3-5 weeks, mice were deeply anesthetized with isoflurane and euthanized by decapitation. Coronal brain slices ([…]) containing striatum or VTA were prepared by standard methods using a Vibratome (Leica, VT 1200S), in ice-cold high sucrose cutting solution containing (in mM) 220 sucrose, 3 KCl, 1.25 NaH2PO4, 25 NaHCO3, 12 MgSO4.7H2O, 10 glucose, and 0.2 CaCl2) bubbled with 95% O2 and 5% CO2. The slices were placed into modified artificial cerebrospinal fluid (aCSF) containing (in mM): 120 NaCl, 3.3 KCl, 1.23 NaH2PO4, 1 MgSO4, 2 CaCl2), 25 NaHCO3, and 10 glucose at pH 7.3, previously saturated with 95% O2 and 5% CO2. For recovery, the slices were incubated at 33° C. for 40-60 min in the bubbled ACSF solution and then allowed to cool to room temperature (22-24° C.) until the recordings were initiated.
Whole-cell patch-clamp recording: The brain slices or retinas were perfused with bubbled aCSF at 29-30° C. with a 2 ml/min flow rate. Recordings were made by whole cell patch recording techniques using a Multiclamp 700B amplifier (Molecular Devices, Axon Instruments Inc., Union City, CA). The signals were filtered at 10 KHz and acquired using Digitate 1440A and pClamp 10.7 (Molecular Devices). […]

[2] = system: endogenous AMPARs; test: all-optical cultured-neuron assay of AMPAR-dependent synaptic transmission; assay type: cell-based, rat; conditions: DW=Rx50/HTL50
Method: Cultured neuronal assays: Preparation of hippocampal cultures: Mixed glial and neuronal cultures were prepared from the hippocampus of postnatal day 0 to 1 Sprague-Dawley rat pups. Separate pools of dissociated cells were transfected via electroporation (LONZA, V4SP-3096) with plasmid constructs, and depending on assay directives, either plated individually or mixed with a different pool of electroporated cells after a 10 min recovery period. Cells were cultured on coverslips (Deckglaser) pre-treated with high molecular weight poly-D-lysine (Sigma, P7405; 0.05 mg/mL) in 24-well plates and maintained in NbActiv4 (BrainBits, Nb4-500) at 37 C, 5% CO2. Media was changed by half at DIV3 or 4 and then weekly thereafter; experiments were performed between DIV16 to DIV18.

[3] = system: +HTP somatostatin interneurons and -HTP neurons of V1 visual cortex; test: 2P calcium imaging of V1 visual responses after contralateral ventricle infusion, SOM-Cre mice; assay type: in vivo, mouse
Method: Top left: Mice expressing pan-neuronal GCaMP8s with SOM-specific ^+HTP. Window over V1. DART delivered via the contralateral ventricle. Bottom left: In-vivo and ex-vivo expression and dye capture. Right: Mice presented oriented visual gratings, 2P Ca^2+ imaging obtained before and 5-6 hr after infusion of 0.3 nmole Alexa647.1^DART.2+3 nmole YM90K.1^DART.2 (2 μL volume) into the contralateral ventricle.
Next, it was examined whether this strategy could deliver a pharmacologically active DART to genetically defined cells. A surgery was performed in which AAV DIO +HTPGPI was injected into the V1 visual cortex of SOM-Cre mice for cell-specific expression in somatostatin interneurons, along with a co-injected AAV-GCaMP8s virus for pan-neuronal neural activity monitoring. A cannula was implanted in the contralateral ventricle, and glass window over V1. Following surgical recovery, a mixture of YM90K.1DART.2+Alexa647.1DART.2 was infused. […] To test for pharmacological effects, 2P calcium imaging of +HTP and −HTP was performed while mice were presented with oriented gratings. A reduction in +HTP visual response was apparent 4 hours post DART infusion. This reduction persisted even after 24 hours post infusion.

[4] = 5-6 hr after infusion of 3 nmole with 0.3 nmole Alexa647.1DART.2

Structure (SMILES)	evoked GABAAR current (IPSCs), +HTP neurons [1]	evoked GABAAR current (IPSCs), ddHTP cells [1]	evoked GABAAR current (IPSCs), +HTP neurons ([1]; listed as gabazine.7^DART.2)	evoked GABAAR current (IPSCs), ddHTP cells ([1]; listed as gabazine.7^DART.2)	widening of Dosing Window vs DART.1 reagent [2]	DW (t=15 m) ([2]; ddHTP vs +HTP cells, 15 min)	responses in +HTP SOM cells [3, 4]	responses in -HTP putative pyramidal cells [3, 4]	+HTP visual response ([3]; 4 hours post DART infusion)	-HTP cells visual response ([3]; 24 hours post infusion)	+HTP cells visual response relative to pre-DART ([3]; 24 hours post infusion, 50% contrast)
COc1cc(CCCCl)ccc1CCOCCNC(=O)c1ccc(CNC(=O)CCOCCOCCOCCOCCOCCOCCOCCOCCOCCOCCOCCOCCOCCOCCOCCOCCOCCOCCOCCOCCOCCOCCOCCOCCOCCOCCOCCOCCOCCOCCOCCOCCOCCOCCOCCOCCn2cc(COCCOCCOCCOCCOCCOCCOCCCCCCOc3ccc(-c4nn(CCCCC(=O)O)c(=N)cc4C)cc3)nn2)cc1 [gabazine.7DART.2]	pronounced block of evoked GABAAR current	no measurable effect on ddHTP cells	nearly complete block of evoked IPSCs	no impact on ^ddHTP cells							
COc1cc(CCCCl)ccc1CCOCCNC(=O)c1ccc(CNC(=O)CCOCCOCCOCCOCCOCCOCCOCCOCCOCCOCCOCCOCCOCCOCCOCCOCCOCCOCCOCCOCCOCCOCCOCCOCCOCCOCCOCCOCCOCCOCCOCCOCCOCCOCCOCCOCCn2cc(COCCOCCOCCOCCOCCOCCNC(=O)CCCn3c(=O)c(=O)[nH]c4cc([N+](=O)[O-])c(-n5ccnc5)cc43)nn2)cc1 [YM90K.1DART.2]					10 fold	300	reduced	unchanged or increased	reduction	no change or increase in visual response	decrease in visual response
